Data taken from ChEMBL document CHEMBL1795342, “Discovery of S1P agonists with a dihydronaphthalene scaffold” (Bioorg Med Chem Lett, 2011).

Legend:
Mus musculus = assay: Immunomodulatory activity in po dosed mouse assessed as reduction in peripheral lymphocyte count measured at 4 hrs; format: functional
[1] = target: Sphingosine 1-phosphate receptor 3 (Homo sapiens, UniProt Q99500); assay: Agonist activity at human S1P3 receptor expressed in CHO cells assessed as intracellular calcium levels; format: functional, cell-based
Chain of Sphingosine 1-phosphate receptor 3 (Q99500 whole entry): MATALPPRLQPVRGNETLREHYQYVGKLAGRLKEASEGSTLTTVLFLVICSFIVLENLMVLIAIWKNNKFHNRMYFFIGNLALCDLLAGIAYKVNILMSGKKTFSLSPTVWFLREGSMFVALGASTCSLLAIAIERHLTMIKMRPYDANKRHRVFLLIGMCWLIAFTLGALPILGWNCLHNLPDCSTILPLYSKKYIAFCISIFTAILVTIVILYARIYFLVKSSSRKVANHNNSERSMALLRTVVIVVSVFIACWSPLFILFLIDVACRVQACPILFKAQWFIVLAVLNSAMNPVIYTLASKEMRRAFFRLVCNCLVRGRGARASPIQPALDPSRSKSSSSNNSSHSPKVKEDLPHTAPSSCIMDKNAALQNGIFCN

[2] = target: Sphingosine 1-phosphate receptor 1 (Homo sapiens, UniProt P21453); assay: Agonist activity at human S1P1 receptor expressed in CHO cells assessed as intracellular calcium levels; format: functional, cell-based
Chain of Sphingosine 1-phosphate receptor 1 (P21453 whole entry): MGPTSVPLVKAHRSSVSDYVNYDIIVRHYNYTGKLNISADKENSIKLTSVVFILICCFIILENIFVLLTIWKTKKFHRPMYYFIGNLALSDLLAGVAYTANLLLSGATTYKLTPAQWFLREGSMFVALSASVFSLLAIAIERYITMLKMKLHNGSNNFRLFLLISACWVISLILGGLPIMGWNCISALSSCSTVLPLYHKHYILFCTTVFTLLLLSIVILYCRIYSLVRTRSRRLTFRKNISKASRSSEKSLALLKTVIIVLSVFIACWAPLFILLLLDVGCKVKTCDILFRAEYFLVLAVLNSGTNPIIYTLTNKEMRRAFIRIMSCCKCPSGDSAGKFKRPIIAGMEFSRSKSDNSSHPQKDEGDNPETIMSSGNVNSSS

[3] = Cmax in rat at 1 mg/kg, po; format: ADME, organism-based; parameters: dose 1 mg/kg, route oral; conditions: in vivo
[4] = Total clearance in rat at 1 mg/kg, iv; format: ADME, organism-based; parameters: dose 1 mg/kg, route intravenous; conditions: in vivo
[5] = Volume of distribution at steady state in rat at 1 mg/kg, iv; format: ADME, organism-based; parameters: dose 1 mg/kg, route intravenous; conditions: in vivo, read-out: Vdss
[6] = AUC (infinity) in rat at 1 mg/kg, po; format: ADME, organism-based; parameters: time infinity, dose 1 mg/kg, route oral; conditions: plasma
[7] = AUC (infinity) in rat at 1 mg/kg, iv; format: ADME, organism-based; parameters: time infinity, dose 1 mg/kg, route intravenous; conditions: plasma
[8] = Half life in rat at 1 mg/kg, iv; format: ADME, organism-based; parameters: dose 1 mg/kg, route intravenous; conditions: in vivo
[9] = Half life in rat at 1 mg/kg, po; format: ADME, organism-based; parameters: dose 1 mg/kg, route oral; conditions: in vivo
[10] = Bioavailability in rat at 1 mg/kg, iv; format: ADME, organism-based; conditions: in vivo

## O=C(O)CCNC/C=C/c1ccc(OCCCc2ccccc2)cc1
Mus musculus
  ED50: 4.6 mg/kg

## O=C(O)CCNC/C=C/c1ccc(OCCCCc2ccccc2)cc1
[1]
  EC50: > 10 µM
[2]
  EC50: 120 nM

## O=C(O)CCNC/C=C/c1ccc(OCCCCCc2ccccc2)cc1
[1]
  EC50: 6.7 µM
[2]
  EC50: 150 nM

## Cc1cc(/C=C/CNCCC(=O)O)ccc1OCCCCc1ccccc1
[1]
  EC50: > 10 µM
[2]
  EC50: 280 nM

## O=C(O)CCNC/C=C/c1ccc(OCCCCc2ccccc2)cc1Cl
[1]
  EC50: 7.2 µM
[2]
  EC50: 24 nM

## COc1cc(OCCCCc2ccccc2)ccc1/C=C/CNCCC(=O)O
[1]
  EC50: > 10 µM
[2]
  EC50: 230 nM

## Cc1cc(OCCCCc2ccccc2)ccc1/C=C/CNCCC(=O)O
[1]
  EC50: > 10 µM
[2]
  EC50: 36 nM

## O=C(O)C1CN(C/C=C/c2ccc(OCCCc3ccccc3)cc2)C1
[1]
  EC50: 3.3 µM
[2]
  EC50: 43 nM

## O=C(O)C1CCN(C/C=C/c2ccc(OCCCc3ccccc3)cc2)CC1
[1]
  EC50: > 10 µM
[2]
  EC50: 2400 nM

## C/C(=C\c1ccc(OCCCCc2ccccc2)cc1)CNCCC(=O)O
[1]
  EC50: 3 µM
[2]
  EC50: 10 nM

## O=C(O)CCNCC1=Cc2ccc(OCCCCc3ccccc3)cc2CC1
[1]
  EC50: 7.8 µM
[2]
  EC50: 57 nM

## CC1=C(CNCCC(=O)O)CCc2cc(OCCCCc3ccccc3)ccc21
[3]
  Cmax: 168 ng/mL
[4]
  clearance: 3.1 mL/min/kg
[5]
  Vd: 0.86 L/kg
[6]
  AUC(0-inf): 2400 ng·h/mL
[1]
  EC50: > 10 µM
Mus musculus
  ED50: 0.34 mg/kg
[7]
  AUC(0-inf): 5400 ng·h/mL
[8]
  half-life: 312 min
[9]
  half-life: 414 min
[2]
  EC50: 11 nM
[10]
  bioavailability: 44%

## CC1=C(CN2CC(C(=O)O)C2)CCc2cc(OCCCCc3ccccc3)ccc21
[3]
  Cmax: 181 ng/mL
[4]
  clearance: 4 mL/min/kg
[5]
  Vd: 2.86 L/kg
[6]
  AUC(0-inf): 3800 ng·h/mL
[1]
  EC50: > 10 µM
Mus musculus
  ED50: 0.16 mg/kg
[7]
  AUC(0-inf): 4400 ng·h/mL
[8]
  half-life: 660 min
[9]
  half-life: 1000 min
[2]
  EC50: 2.9 nM
[10]
  bioavailability: 85%

## CC1=C(CN2CC(C(=O)O)C2)CCCc2cc(OCCCCc3ccccc3)ccc21
[1]
  EC50: > 10 µM
[2]
  EC50: 1300 nM
